Source: ChEMBL document CHEMBL3390836, “Mannich- and LedererManasse-based analogues of the natural product S-(+)-curcuphenol as cancer proliferation and migration inhibitors” (Medchemcomm, 2012)

Legend:
Assay type in all cases: functional
[1] = tested on: RXF 393; assay: Cytotoxicity against human RXF393 cells assessed as cell growth at 10^-6 M after 48 hrs by SRB assay relative to control; conditions: RXF 393, 48 h, read-out: Activity
[2] = tested on: SF-295; assay: Cytotoxicity against human SF295 cells assessed as cell growth at 10^-4 M after 48 hrs by SRB assay relative to control; conditions: SF-295, 48 h, read-out: Activity
[3] = Cytotoxicity against human HCT15 cells assessed as cell growth at 10^-6 M after 48 hrs by SRB assay relative to control; conditions: HCT-15, 48 h, read-out: Activity
[4] = tested on: U-251; assay: Cytotoxicity against human U251 cells after 48 hrs by SRB assay; conditions: U-251, 48 h
[5] = tested on: LOX IMVI; assay: Cytotoxicity against human LOXIMVI cells assessed as cell growth at 10^-8 M after 48 hrs by SRB assay relative to control; conditions: read-out: Activity
[6] = tested on: MCF7; assay: Cytotoxicity against human MCF7 cells after 48 hrs by SRB assay; conditions: MCF7, 48 h; for CC50: read-out: LC50 (the source's name)
[7] = tested on: MDA-MB-231; assay: Cytotoxicity against human MDA-MB-231 cells assessed as cell growth at 10^-4 M after 48 hrs by SRB assay relative to control; conditions: MDA-MB-231, 48 h, read-out: Activity
[8] = tested on: MDA-MB-435; assay: Cytotoxicity against human MDA-MB-435 cells assessed as cell growth at 10^-6 M after 48 hrs by SRB assay relative to control; conditions: MDA-MB-435, 48 h, read-out: Activity
[9] = tested on: 786-0; assay: Cytotoxicity against human 786-0 cells assessed as cell growth at 10^-8 M after 48 hrs by SRB assay relative to control; conditions: 786-0, 48 h, read-out: Activity
[10] = tested on: SK-MEL-5; assay: Cytotoxicity against human SK-MEL-5 cells assessed as cell growth at 10^-6 M after 48 hrs by SRB assay relative to control; conditions: SK-MEL-5, 48 h, read-out: Activity
[11] = tested on: HT-29; assay: Cytotoxicity against human HT-29 cells assessed as cell growth at 10^-7 M after 48 hrs by SRB assay relative to control; conditions: HT-29, 48 h, read-out: Activity
[12] = tested on: ACHN; assay: Cytotoxicity against human ACHN cells after 48 hrs by SRB assay
[13] = Cytotoxicity against human HCT116 cells after 48 hrs by SRB assay; conditions: HCT-116, 48 h; for CC50: read-out: LC50 (the source's name)
[14] = tested on: SNB-19; assay: Cytotoxicity against human SNB19 cells assessed as cell growth at 10^-7 M after 48 hrs by SRB assay relative to control; conditions: SNB-19, 48 h, read-out: Activity
[15] = tested on: COLO 205; assay: Cytotoxicity against human COLO205 cells assessed as cell growth at 10^-7 M after 48 hrs by SRB assay relative to control; conditions: COLO 205, 48 h, read-out: Activity
[16] = tested on: LOX IMVI; assay: Cytotoxicity against human LOXIMVI cells after 48 hrs by SRB assay
[17] = tested on: SN12C; assay: Cytotoxicity against human SN12C cells assessed as cell growth at 10^-8 M after 48 hrs by SRB assay relative to control; conditions: read-out: Activity
[18] = Cytotoxicity against human OVCAR4 cells assessed as cell growth at 10^-6 M after 48 hrs by SRB assay relative to control; conditions: OVCAR-4, 48 h, read-out: Activity
[19] = tested on: NCI-H460; assay: Cytotoxicity against human NCI-H460 cells assessed as cell growth at 10^-7 M after 48 hrs by SRB assay relative to control; conditions: NCI-H460, 48 h, read-out: Activity
[20] = Cytotoxicity against human OVCAR8 cells assessed as cell growth at 10^-4 M after 48 hrs by SRB assay relative to control; conditions: OVCAR-8, 48 h, read-out: Activity
[21] = tested on: SK-MEL-2; assay: Cytotoxicity against human SK-MEL-2 cells assessed as cell growth at 10^-7 M after 48 hrs by SRB assay relative to control; conditions: SK-MEL-2, 48 h, read-out: Activity
[22] = tested on: SF-295; assay: Cytotoxicity against human SF295 cells assessed as cell growth at 10^-8 M after 48 hrs by SRB assay relative to control; conditions: SF-295, 48 h, read-out: Activity
[23] = tested on: IGROV-1; assay: Cytotoxicity against human IGROV1 cells after 48 hrs by SRB assay; conditions: IGROV-1, 48 h
[24] = tested on: SF-295; assay: Cytotoxicity against human SF295 cells after 48 hrs by SRB assay; conditions: SF-295, 48 h; for CC50: read-out: LC50 (the source's name)
[25] = tested on: HOP-62; assay: Cytotoxicity against human HOP62 cells after 48 hrs by SRB assay; conditions: HOP-62, 48 h
[26] = tested on: HL-60(TB); assay: Cytotoxicity against human HL-60(TB) cells assessed as cell growth at 10^-4 M after 48 hrs by SRB assay relative to control; conditions: HL-60, 48 h, read-out: Activity
[27] = tested on: SK-MEL-28; assay: Cytotoxicity against human SK-MEL-28 cells assessed as cell growth at 10^-6 M after 48 hrs by SRB assay relative to control; conditions: SK-MEL-28, 48 h, read-out: Activity
[28] = Cytotoxicity against human NCI-ADR-RES cells assessed as cell growth at 10^-7 M after 48 hrs by SRB assay relative to control; conditions: read-out: Activity
[29] = tested on: A498; assay: Cytotoxicity against human A498 cells assessed as cell growth at 10^-4 M after 48 hrs by SRB assay relative to control; conditions: A498, 48 h, read-out: Activity
[30] = tested on: MOLT-4; assay: Cytotoxicity against human MOLT4 cells assessed as cell growth at 10^-6 M after 48 hrs by SRB assay relative to control; conditions: MOLT-4, 48 h, read-out: Activity
[31] = Cytotoxicity against human NCI-ADR-RES cells assessed as cell growth at 10^-6 M after 48 hrs by SRB assay relative to control; conditions: read-out: Activity
[32] = tested on: COLO 205; assay: Cytotoxicity against human COLO205 cells assessed as cell growth at 10^-6 M after 48 hrs by SRB assay relative to control; conditions: COLO 205, 48 h, read-out: Activity
[33] = tested on: SNB-19; assay: Cytotoxicity against human SNB19 cells after 48 hrs by SRB assay; conditions: SNB-19, 48 h; for CC50: read-out: LC50 (the source's name)
[34] = Cytotoxicity against human Hs 578T cells assessed as cell growth at 10^-8 M after 48 hrs by SRB assay relative to control; conditions: read-out: Activity
[35] = tested on: HCC 2998; assay: Cytotoxicity against human HCC2998 cells assessed as cell growth at 10^-7 M after 48 hrs by SRB assay relative to control; conditions: HCC 2998, 48 h, read-out: Activity

CC(C)=CCC[C@H](C)c1ccc(C)c(CNCC2CCNCC2)c1O showed a growth at 1 µM [1] of 95%, a growth at 100 µM [2] of -73% and a growth at 1 µM [3] of 98%. For the same compound, the GI50 [4] was 3.72 µM, the LC50 [4] was 15.9 µM and the TGI [4] was 7.69 µM. It also gave a growth at 0.01 µM [5] of 95%, a GI50 [6] of 4.5 µM and a TGI [6] of 8.34 µM. For the same compound, the CC50 [6] was 15.5 µM, the growth at 100 µM [7] was -65% and the growth at 1 µM [8] was 92%. For the same compound, the growth at 0.01 µM [9] was 93%, the growth at 1 µM [10] was 93% and the growth at 0.1 µM [11] was 105%. The GI50 [12] was 4.68 µM, the LC50 (concentration killing 50% of cells) [12] was > 25 µM and the TGI [12] was 12.7 µM. The GI50 [13] was 5.08 µM, the TGI [13] was 12.4 µM and the CC50 [13] was > 25 µM. The growth at 0.1 µM [14] was 91%, the growth at 0.1 µM [15] was 101% and the GI50 [16] was 3.85 µM. The LC50 (concentration killing 50% of cells) [16] was 16.5 µM, the TGI [16] was 7.96 µM and the growth at 0.01 µM [17] was 92%. The growth at 1 µM [18] was 101%, the growth at 0.1 µM [19] was 98% and the growth at 100 µM [20] was -60%. The growth at 0.1 µM [21] was 97%, the growth at 0.01 µM [22] was 96% and the GI50 [23] was 9.4 µM. The LC50 (concentration killing 50% of cells) [23] was > 25 µM, the TGI [23] was > 25 µM and the GI50 [24] was 3.31 µM. For the same compound, the TGI [24] was 7.53 µM, the CC50 [24] was 17.1 µM and the GI50 [25] was 4.12 µM. The LC50 [25] was 17.6 µM, the TGI [25] was 8.5 µM and the growth at 100 µM [26] was -63%. The growth at 1 µM [27] was 98%, the growth at 0.1 µM [28] was 100% and the growth at 100 µM [29] was 43%. It also gave a growth at 1 µM [30] of 99%, a growth at 1 µM [31] of 95% and a growth at 1 µM [32] of 107%. The GI50 [33] was 3.99 µM, the TGI [33] was > 25 µM and the CC50 [33] was > 25 µM. It also gave a growth at 0.01 µM [34] of 94% and a growth at 0.1 µM [35] of 95%.

For CC(C)=CCC[C@H](C)c1ccc(C)c2c1OCN(CC1CCNCC1)C2, the growth at 1 µM [1] was 125%, the growth at 100 µM [2] was -67% and the growth at 1 µM [3] was 95%. The GI50 [4] was 2.75 µM, the LC50 [4] was 31.6 µM and the TGI [4] was 7.61 µM. For the same compound, the growth at 0.01 µM [5] was 100%, the GI50 [6] was 6.15 µM and the TGI [6] was 18.7 µM. It also gave a CC50 [6] of 45.2 µM, a growth at 100 µM [7] of -77% and a growth at 1 µM [8] of 96%. For the same compound, the growth at 0.01 µM [9] was 96%, the growth at 1 µM [10] was 96% and the growth at 0.1 µM [11] was 112%. For the same compound, the GI50 [12] was 15.3 µM, the LC50 (concentration killing 50% of cells) [12] was 58.9 µM and the TGI [12] was 30 µM. It also gave a GI50 [13] of 7.17 µM, a TGI [13] of 21.7 µM and a CC50 [13] of 56.3 µM. For the same compound, the growth at 0.1 µM [14] was 95%, the growth at 0.1 µM [15] was 108% and the GI50 [16] was 5.87 µM. For the same compound, the LC50 (concentration killing 50% of cells) [16] was 54.6 µM, the TGI [16] was 20.2 µM and the growth at 0.01 µM [17] was 97%. For the same compound, the growth at 1 µM [18] was 101%, the growth at 0.1 µM [19] was 106% and the growth at 100 µM [20] was -85%. For the same compound, the growth at 0.1 µM [21] was 111%, the growth at 0.01 µM [22] was 92% and the GI50 [23] was 16.6 µM. The LC50 (concentration killing 50% of cells) [23] was 62.5 µM, the TGI [23] was 32.2 µM and the GI50 [24] was 15.9 µM. The TGI [24] was 34.9 µM, the CC50 [24] was 76.5 µM and the GI50 [25] was 14.8 µM. For the same compound, the LC50 [25] was 55.6 µM, the TGI [25] was 28.7 µM and the growth at 100 µM [26] was -73%. It also gave a growth at 1 µM [27] of 101%, a growth at 0.1 µM [28] of 98% and a growth at 100 µM [29] of -90%. It also gave a growth at 1 µM [30] of 100%, a growth at 1 µM [31] of 102% and a growth at 1 µM [32] of 101%. For the same compound, the GI50 [33] was 14 µM, the TGI [33] was 29.4 µM and the CC50 [33] was 61.8 µM. It also gave a growth at 0.01 µM [34] of 98% and a growth at 0.1 µM [35] of 105%.
